Format in all cases: cell-based
One assay deals with FaDu. Kind of assay: MTT growth inhibition (in vitro cytotoxicity), FaDu. Particulars: Homo sapiens, average IC50. The method, then: (§1) The following Table sets forth the IC50 values of harmaline and quinoline analogs against 23 human cancer cell lines. Growth inhibition effects (in vitro cytotoxicity) on pancreatic, endometrial, breast, lung, ovarian, renal, cervical, lymphoma, and myeloma cancer cells were determined by MTT assays and represented by average IC50 values. In the Table, the results are given in terms of μM, and nd=not determined.

The subject of a further assay is L363. Kind of assay: MTT growth inhibition (in vitro cytotoxicity), L363. Particulars: Homo sapiens, L-363, average IC50. The method, then:
as §1

The next assay has as its system DoHH-2. Kind of assay: MTT growth inhibition (in vitro cytotoxicity), DoHH-2. Particulars: Homo sapiens, average IC50. Here is the method:
as §1

The subject of the next assay is KMM-1. Kind of assay: MTT growth inhibition (in vitro cytotoxicity), KMM-1. The conditions noted are these: Homo sapiens, average IC50. The method, then: as §1
A further assay has as its system human cancer cell lines. Kind of assay: Cancer cell growth inhibition, summary over cell lines. The conditions noted are these: read-out: cancer cell growth inhibition (IC50). Here is the method:
as §1

For a further assay, the system named is A2780. Kind of assay: MTT growth inhibition (in vitro cytotoxicity), A2780. Particulars: Homo sapiens, average IC50. The method, then: as §1
In the next assay the test system is MIA Paca-2. Kind of assay: MTT growth inhibition (in vitro cytotoxicity), MIA Paca-2. The conditions noted are these: Homo sapiens, average IC50. Here is the method:
as §1

A further assay deals with JIM1. Kind of assay: MTT growth inhibition (in vitro cytotoxicity), JIM1. Particulars: Homo sapiens, average IC50. The method, then: as §1
Another assay has as its system ASPC-1. Kind of assay: MTT growth inhibition (in vitro cytotoxicity), ASPC-1. The conditions noted are these: Homo sapiens, ASPC1, average IC50. Here is the method:
as §1

The subject of another assay is MOLP-8. Kind of assay: MTT growth inhibition (in vitro cytotoxicity), MOLP-8. The conditions noted are these: Homo sapiens, average IC50. Here is the method: as §1
Another assay concerns H1650(EGFR mut). Kind of assay: MTT growth inhibition (in vitro cytotoxicity), H1650(EGFR mut). Particulars: Homo sapiens, NCI-H1650, average IC50. Here is the method: as §1
The next assay has as its system MDA-MB-468. Kind of assay: MTT growth inhibition (in vitro cytotoxicity), MDA-MB-468. Particulars: Homo sapiens, average IC50. The method, then: as §1
In another assay the test system is A498. Kind of assay: MTT growth inhibition (in vitro cytotoxicity), A498. Particulars: Homo sapiens, average IC50. The method, then:
as §1

A further assay has as its system A2780CP. Kind of assay: MTT growth inhibition (in vitro cytotoxicity), A2780CP. Particulars: Homo sapiens, A2780C/P, average IC50. The method, then:
as §1

A further assay deals with RPMI-8226. Kind of assay: MTT growth inhibition (in vitro cytotoxicity), RPMI-8226. The conditions noted are these: Homo sapiens, average IC50. Here is the method: as §1
In the next assay the test system is KMS-34. Kind of assay: MTT growth inhibition (in vitro cytotoxicity), KMS-34. Particulars: Homo sapiens, average IC50. The method, then: as §1
The test system of another assay is H1975 (EGFR mut). Kind of assay: MTT growth inhibition (in vitro cytotoxicity), H1975 (EGFR mut). The conditions noted are these: Homo sapiens, NCI-H1975, average IC50. The method, then: as §1
The test system of a further assay is OCI-LY3. Kind of assay: MTT growth inhibition (in vitro cytotoxicity), OCI-LY3. Particulars: Homo sapiens, average IC50. Here is the method: as §1
In the next assay the test system is AN3CA. Kind of assay: MTT growth inhibition (in vitro cytotoxicity), AN3CA. Particulars: Homo sapiens, AN3-CA, average IC50. The method, then: as §1
The next assay relates to SiHA. Kind of assay: MTT growth inhibition (in vitro cytotoxicity), SiHA. Particulars: Homo sapiens, average IC50. The method, then: as §1
For another assay, the system named is HCC70. Kind of assay: MTT growth inhibition (in vitro cytotoxicity), HCC70. Particulars: Homo sapiens, average IC50. Here is the method:
as §1

A further assay relates to MDA-MB-231. Kind of assay: MTT growth inhibition (in vitro cytotoxicity), MDA-MB-231. The conditions noted are these: Homo sapiens, average IC50. The method, then: as §1
A further assay deals with BxPC-3. Kind of assay: MTT growth inhibition (in vitro cytotoxicity), BxPC-3. The conditions noted are these: Homo sapiens, average IC50. Here is the method:
as §1

Another assay relates to HEC-1a. Kind of assay: MTT growth inhibition (in vitro cytotoxicity), HEC-1a. Particulars: Homo sapiens, average IC50. The method, then: as §1

pIC50: −log10 of the molar value. Where two headings read alike, the source gives them in different places.

In general, pIC50 refers to −log10 of the IC50, conventionally taken in molar units. Regarding `COc1ccc2c3c([nH]c2c1)C(CC(CC1=NCCc2c1[nH]c1cc(OC)ccc21)c1ccccc1)=NCC3` [Compound 6, 1,1′-(2-phenylpropane-1,3-diyl)bis(7-methoxy-4,9-dihydro-3H-pyrido[3,4-b]indole)], the pIC50 was 5.80 in the assay on FaDu; 5.85 in the assay with L363; 5.70 with DoHH-2; 5.72 in the assay with KMM-1; 5.15 to 5.40 with human cancer cell lines (cell lines not specified); 5.53 in the assay on A2780. Besides, the pIC50 in the assay with MIA Paca-2 was 5.73; in the assay on JIM1 it was 5.65; in the assay with ASPC-1, 5.68.
Consider `COc1ccc2[nH]c3c(c2c1)CCN=C3CCCCC1=NCCc2c1[nH]c1ccc(OC)cc21` [Compound 9, 1,4-bis(6-methoxy-4,9-dihydro-3H-pyrido[3,4-b]indol-1-yl)butane], for which the pIC50 with MOLP-8 was 5.43; with FaDu it was 5.17; in the assay on L363 it was 5.08; in the assay on H1650(EGFR mut), 4.82; with MDA-MB-468 it was 5.15; with A498 it was 4.72. For the same compound, the pIC50 with A2780CP is 4.75; in the assay with DoHH-2, 5.19; with RPMI-8226 it was 5.26; in the assay on KMS-34 it was 4.82; in the assay on H1975 (EGFR mut), 4.72; in the assay on KMM-1 it was 4.92. In addition, the pIC50 in the assay on OCI-LY3 was 5.16; in the assay on AN3CA, 4.68; in the assay on A2780 it was 4.93; in the assay on SiHA, 4.70; in the assay with MIA Paca-2 it was 5.18; in the assay on JIM1 it was 4.67. Also, the pIC50 in the assay with ASPC-1 is 4.69; in the assay on HCC70, 4.93; in the assay with MDA-MB-231, 4.71; in the assay with BxPC-3, 4.97; in the assay on HEC-1a it was 4.68.
For `COc1ccc2c3c([nH]c2c1)C(CC(CC1NCCc2c1[nH]c1cc(OC)ccc21)c1ccc(O)c(OC)c1)NCC3` (centres unmarked) [Compound 10, 4-(1,3-bis(7-methoxy-2,3,4,9-tetrahydro-1H-pyrido[3,4-b]indol-1-yl)propan-2-yl)-2-methoxyphenol], the pIC50 in the assay on FaDu was 5.58; in the assay on L363 it was 5.66; in the assay with DoHH-2, 5.65; with KMM-1, 5.60; in the assay with A2780, 5.21; with MIA Paca-2, 5.60. Besides, the pIC50 is 5.64 with JIM1 and 5.34 with ASPC-1.
In the case of `COc1ccc2c3c([nH]c2c1)C(CC(CC1NCCc2c1[nH]c1cc(OC)ccc21)c1ccccc1)NCC3` (centres unmarked) [Compound 11, 1,1′-(2-phenylpropane-1,3-diyl)bis(7-methoxy-2,3,4,9-tetrahydro-1H-pyrido[3,4-b]indole)], the pIC50 in the assay with FaDu is 5.65; in the assay with L363, 5.72; with DoHH-2, 5.64; with KMM-1, 5.69; in the assay on human cancer cell lines (cell lines not specified), 5.40 to 5.70; with A2780 it was 5.47. Also, the pIC50 is 5.65 in the assay on MIA Paca-2, 5.62 in the assay on JIM1 and 5.62 in the assay on ASPC-1.
In the case of `COc1cc(C(Cc2nccc3ccccc23)Cc2nccc3ccccc23)ccc1O` [Compound 13, 4-(1,3-di(isoquinolin-1-yl)propan-2-yl)-2-methoxyphenol], the pIC50 in the assay with MOLP-8 is 5.01; in the assay with FaDu, 4.47; with L363, 4.53; with H1650(EGFR mut), 4.42; in the assay on MDA-MB-468, 4.71; in the assay with A498, 4.41. In addition, the pIC50 in the assay on A2780CP was 4.60; in the assay with DoHH-2 it was 4.71; in the assay on RPMI-8226, 4.74; in the assay with KMS-34, 4.93; in the assay with H1975 (EGFR mut), 4.37; with KMM-1 it was 4.83. The pIC50 with OCI-LY3 was 4.43; in the assay on AN3CA, 4.71; in the assay with A2780, 4.56; in the assay with SiHA it was 4.34; in the assay on MIA Paca-2, 4.71; with JIM1, 4.53. Further, the pIC50 in the assay with ASPC-1 was 4.31; with HCC70, 4.43; in the assay with MDA-MB-231, 4.55; in the assay with BxPC-3, 4.70; in the assay on HEC-1a it was 4.40.
On to `COc1cc(C(Cc2ccc3ccccc3n2)Cc2ccc3ccccc3n2)ccc1O` [Compound 16, 4-(1,3-di(quinolin-2-yl)propan-2-yl)-2-methoxyphenol], for which the pIC50 in the assay on MOLP-8 was 4.80; in the assay on FaDu, 4.31; in the assay on L363 it was 4.53; in the assay with H1650(EGFR mut) it was 4.29; in the assay with MDA-MB-468 it was 4.50; in the assay with A498, 4.09. The pIC50 was 4.65 with A2780CP; 4.83 with DoHH-2; 4.82 with RPMI-8226; 4.83 in the assay on KMS-34; 4.23 in the assay on H1975 (EGFR mut); 4.77 in the assay with KMM-1. Moreover, the pIC50 is 4.11 in the assay with OCI-LY3; 4.71 with AN3CA; 4.53 in the assay with A2780; 4.07 in the assay on SiHA; 4.61 with MIA Paca-2; 4.45 in the assay with JIM1. The pIC50 in the assay with ASPC-1 is 4.02; in the assay on HCC70, 4.45; with MDA-MB-231, 4.50; in the assay on BxPC-3, 4.71; in the assay on HEC-1a, 4.17.
With `c1ccc(C(Cc2ccc3ccccc3n2)Cc2ccc3ccccc3n2)cc1` [Compound 17, 2,2′-(2-phenylpropane-1,3-diyl)diquinoline], the negative logarithm of the IC50 (pIC50) in the assay with MOLP-8 was 5.18; in the assay on FaDu it was 4.73; in the assay on L363, 5.10; in the assay with H1650(EGFR mut), 4.61; in the assay with MDA-MB-468 it was 4.59; in the assay on A498 it was 4.66. The pIC50 was 5.05 with A2780CP; 5.16 in the assay on DoHH-2; 5.10 with RPMI-8226; 5.11 with KMS-34; 4.52 in the assay with H1975 (EGFR mut); 5.10 in the assay with KMM-1. Also, the pIC50 was 4.62 in the assay on OCI-LY3; 5.03 with AN3CA; 4.87 with A2780; 4.63 in the assay with SiHA; 4.88 with MIA Paca-2; 4.96 in the assay with JIM1. The pIC50 was 4.54 with ASPC-1; 4.76 in the assay on HCC70; 4.84 with MDA-MB-231; 5.12 in the assay on BxPC-3; 4.59 in the assay on HEC-1a.
`COc1ccc2nc(CC(Cc3ccc4cc(OC)ccc4n3)c3ccccc3)ccc2c1` [Compound 18, 2,2′-(2-phenylpropane-1,3-diyl)bis(6-methoxyquinoline)]: the pIC50 is 4.82 in the assay with MOLP-8; 4.52 in the assay with FaDu; 4.76 with L363; 4.31 in the assay on H1650(EGFR mut); < 4.00 in the assay with MDA-MB-468; < 4.00 with A498. For the same compound, the negative-log IC50 (pIC50) in the assay on A2780CP is 4.57; with DoHH-2 it was 4.84; in the assay on RPMI-8226, 4.75; in the assay on KMS-34, 4.76; in the assay with H1975 (EGFR mut), < 4.00; in the assay on KMM-1 it was 4.83. Also, the pIC50 in the assay on OCI-LY3 is 4.37; in the assay with AN3CA it was 4.38; with A2780, 4.59; with SiHA, < 4.00; in the assay on MIA Paca-2, 4.66; with JIM1 it was 4.50. For the same compound, the pIC50 in the assay with ASPC-1 is < 4.00; in the assay on HCC70 it was < 4.00; in the assay with MDA-MB-231, < 4.00; in the assay on BxPC-3, 4.60; in the assay with HEC-1a, 4.42.
For `COc1ccc2c3c([nH]c2c1)C(C)=NCC3` [harmaline, reference compound], in the assay on human cancer cell lines, the pIC50 is 4.60.
Take `COc1cc(C=O)ccc1O` [vanillin, reference compound]: the pIC50 in the assay with human cancer cell lines (cell lines not specified) was 4.40.
